ChEMBL document CHEMBL1157539, “Thousands of chemical starting points for antimalarial lead identification” (Nature, 2010)

Tested on: Plasmodium falciparum
Assay: GSK_TCMDC: Inhibition of Plasmodium falciparum 3D7 in whole erythrocytes, using parasite LDH activity as an index of growth.
Format: functional, organism-based
Conditions: Plasmodium falciparum, 3D7

Which XC50 does the source give for `Nc1c2ccccc2nc2ccc(Cl)cc12` here?
The XC50 was 0.805 µM.

Which XC50 does the source give for `CC(C)N1CCC(N(Cc2ccc(-c3ccc(C(F)(F)F)cc3)cc2)C(=O)Cn2c(CCc3cccc(F)c3F)cc(=O)c3c2CCC3)CC1` here?
The XC50 was 0.617 µM.

How did the XC50 turn out when `O=C1COc2cc(Cl)c(CNC3CCN(CCc4ccnc5c(F)cc(F)cc45)CC3)nc2N1` was run?
Its XC50 is 0.797 µM.

For `COc1ccc(CNCc2cccc(-c3cccc(-c4nc5cccc(C)c5[nH]4)c3)c2)cc1`, which XC50 is on record?
Its XC50 is 0.134 µM.

For `CN1CCC(Oc2ccc(CN3CC[C@H](NC(=O)c4ccc(F)c(F)c4)C3)c3ccccc23)C1` (stereo partly drawn), which XC50 is on record?
The XC50 was 1.08 µM.

Which XC50 does the source give for `CC(C)CCN1CCCN(Cc2cccc(NC(=O)c3cc4ccccc4s3)c2)CC1` here?
The XC50 was 0.917 µM.

For `Oc1ccc(CCCNc2nc(NCc3cccc4ccccc34)nc(NC3CCNCC3)n2)cc1`, which XC50 is on record?
The XC50 was 1.13 µM.

With `CC1c2cccc(O)c2CCN1CCc1ccc(Cl)c(Cl)c1` (stereo not drawn) as the compound, how does the XC50 read?
The XC50 was 0.138 µM.

With `CCCCCCCc1c(C)nc2cc(OC)ccc2c1O` as the compound, how does the XC50 read?
The XC50 was 0.0628 µM.

`COC(=O)c1ccc(CCC(C)NCC(O)c2cccc(C(F)(F)F)c2)cc1` (stereo not drawn) was tested. Which XC50 did it give?
Its XC50 is 0.411 µM.

`COc1ccc(CN(C)CCCOc2ccc(NC(=O)C=Cc3ccc(C(C)(C)C)cc3)cc2)cc1OC` was tested. Which XC50 did it give?
Its XC50 is 0.855 µM.

Which XC50 does the source give for `COc1ccc(CC(C)NCC(O)c2ccc(Cl)c(Cl)c2)cc1` (stereo not drawn) here?
Its XC50 is 0.717 µM.

For `CC(C)CN(C)c1ncnc2c1nc(-c1cncc(C#N)c1)n2CCNCc1ccccc1`, which XC50 is on record?
Its XC50 is 1.36 µM.

`Nc1c2c(nc3ccc(NC(=O)Cc4ccccc4)cc13)CCCC2` was tested. Which XC50 did it give?
The XC50 was 0.755 µM.

Which XC50 does the source give for `CCCN(CCCN(CCCN(CCC)C(C)C)c1cc(C)nc(Nc2ccc(Cl)cc2)n1)C(C)C` here?
Its XC50 is 0.113 µM.

`Cc1c(C(=O)N[C@@H](C)c2ccccc2)c2cc(O)c(Br)cc2n1C1CCCCC1` was tested. Which XC50 did it give?
The XC50 was 0.84 µM.

How did the XC50 turn out when `CC(C)c1ccc(NC(=O)NC2CCN(CCCCCNC(=O)/C=C/c3ccc(Cl)c(Cl)c3)CC2)cc1` was run?
The XC50 was 0.674 µM.

With `O=C(Cc1cc(=O)oc2cc(O)ccc12)N1CCC(CN2CCC(c3c[nH]c4ccccc34)CC2)CC1` as the compound, how does the XC50 read?
The XC50 was 0.87 µM.

`CN(Cc1cccc(C#N)c1)C1CCN(c2cc(NC(=O)c3cccc(F)c3)ccn2)CC1` was tested. Which XC50 did it give?
The XC50 was 0.926 µM.

How did the XC50 turn out when `COc1ccc(C(=O)NCc2ccc(N)nc2C)cc1Nc1ncc(-c2cccc(N(C)C)c2)cn1` was run?
Its XC50 is 0.897 µM.

With `O=C(Cc1c[nH]cn1)Nc1cccc(-c2cccc(-c3nc4ccccc4[nH]3)c2)c1` as the compound, how does the XC50 read?
The XC50 was 1.02 µM.

With `Cc1csc(-c2ncc(OC[C@@H](N)Cc3ccccc3)cc2-c2ccc3[nH]nc(C)c3c2)c1` as the compound, how does the XC50 read?
The XC50 was 0.836 µM.

`COC(=O)c1ccc(NC(=O)Nc2ccc(Cn3ncc(N4CCCNCC4)c(Cl)c3=O)cc2)cc1` was tested. Which XC50 did it give?
The XC50 was 0.605 µM.

How did the XC50 turn out when `COc1ccc(N2CCN(CCCOc3ccc(NC(=O)c4cc(Cl)cc(Cl)c4)cc3)CC2)c(OC)c1` was run?
The XC50 was 0.897 µM.

For `CC(Cc1ccc(NC(=O)[C@@H](C)NCCc2cccc(Cl)c2)cc1)NCCc1cccc(Cl)c1` (stereo partly drawn), which XC50 is on record?
The XC50 was 0.778 µM.

Which XC50 does the source give for `O=S(=O)(c1ccccc1OC(F)(F)F)C1CC2CCC(C1)N2S(=O)(=O)c1cccc(C(F)(F)F)c1` (stereo not drawn) here?
Its XC50 is 0.665 µM.

`CCNc1cc(C(=O)N[C@@H](Cc2ccccc2)[C@H](O)CNC2CCC(C)(C)C2)cc(N2CCCCS2(=O)=O)c1` (stereo partly drawn) was tested. Which XC50 did it give?
Its XC50 is 0.138 µM.

`O=C(Nc1ccc(C(F)(F)F)cc1)c1cccc(S(=O)(=O)NC2CCN(Cc3ccccc3)C2)c1` (stereo not drawn) was tested. Which XC50 did it give?
The XC50 was 1.05 µM.

`c1ccc(COc2ccc(Nc3ncnc4cnc(-c5ccc(CN6CCCCC6)o5)cc34)cc2)cc1` was tested. Which XC50 did it give?
Its XC50 is 0.967 µM.

How did the XC50 turn out when `CCCCCCCC1CC(CC(=O)Nc2ccnc3ccc(OC)cc23)CN1C(=O)OC(C)(C)C` (stereo not drawn) was run?
Its XC50 is 0.714 µM.

How did the XC50 turn out when `CCc1cc(=O)[nH]c(-n2nc(C)cc2NC(=O)CC(c2ccccc2)c2ccccc2)n1` was run?
Its XC50 is 0.964 µM.

`FC(F)(F)c1ccc2[nH]c(-c3ccc(-c4ccc(CNCCc5ccncc5)cc4)cc3)nc2c1` was tested. Which XC50 did it give?
Its XC50 is 0.129 µM.

Which XC50 does the source give for `Cn1cc(-c2ccnc3[nH]c(-c4cccc(CNC5CCC(O)CC5)c4)cc23)cn1` (stereo not drawn) here?
The XC50 was 0.903 µM.

For `Cc1ccc(CN2CCN(Cc3cccc(NC(=O)c4ccc5ccccc5c4)c3)CC2)cc1C`, which XC50 is on record?
The XC50 was 1.22 µM.

`CCOc1cc(C(=O)N[C@@H](Cc2ccccc2)[C@H](O)CNC(C)(C)c2cccc(OC)c2)cc(N2CCCS2(=O)=O)c1` was tested. Which XC50 did it give?
The XC50 was 0.224 µM.

`Nc1nc(N)c2cc(CNc3ccc(Cl)c(Cl)c3)ccc2n1` was tested. Which XC50 did it give?
The XC50 was 1.02 µM.

How did the XC50 turn out when `O=C(/C=C/c1ccc(Cl)c(Cl)c1)NCCCCCN1CCN(C(=O)Nc2cccc(F)c2)CC1` was run?
Its XC50 is 0.874 µM.

How did the XC50 turn out when `COc1ccc(CNC2CCN(C)CC2)cc1-c1cccc(S(=O)(=O)NCc2ccccc2)c1` was run?
The XC50 was 0.723 µM.

For `COc1ccc2ncc(F)c([C@@H](O)CN3CCC(NCc4ccc5c(c4)NCCS5)CC3)c2n1`, which XC50 is on record?
Its XC50 is 0.504 µM.

With `O=C(Nc1ccc2ccccc2c1)c1ccc(CN2CCC(Cc3ccccc3)CC2)cc1` as the compound, how does the XC50 read?
Its XC50 is 0.876 µM.

Which XC50 does the source give for `O=C1c2ccccc2C(=O)N1CCOc1c(Br)cc(Br)cc1CNCCCNc1cc(=O)c2ccccc2[nH]1` here?
The XC50 was 0.837 µM.

For `NC1CCN(Cc2cccc(-c3ccc(-c4nc5cc(C(F)(F)F)ccc5[nH]4)cc3)c2)C1` (stereo not drawn), which XC50 is on record?
Its XC50 is 0.698 µM.

How did the XC50 turn out when `Cc1ccc2[nH]ncc2c1N(CC1CCCCC1)c1ccnc(Nc2ccc(OCC(O)CN3CC=CCC3)cc2)n1` (stereo not drawn) was run?
The XC50 was 0.622 µM.

How did the XC50 turn out when `COc1ccc(S(=O)(=O)N2CCC3(CC2)OCC(=O)NC3c2ccc(Cl)c(Cl)c2)cc1` (stereo not drawn) was run?
The XC50 was 0.644 µM.

For `CNC(=O)c1ccccc1Nc1nc(Nc2cccc(CS(C)(=O)=O)c2)ncc1C`, which XC50 is on record?
Its XC50 is 0.533 µM.

Which XC50 does the source give for `O=C(/C=C/c1ccc(Cl)c(Cl)c1)NCCCCCCN1CCN(C(=O)Nc2cc(Cl)nc(Cl)c2)CC1` here?
Its XC50 is 0.784 µM.

`COc1ccc(NC2=C(c3ccccc3)C(=O)c3ccccc32)cn1` was tested. Which XC50 did it give?
The XC50 was 0.705 µM.

For `C=Cc1ccc(-c2c(C)[nH]c(C)c(Br)c2=O)cc1`, which XC50 is on record?
The XC50 was 0.556 µM.

For `COc1ccc(C=CC(=O)Nc2ccc(N3CCCC3)cc2)cc1`, which XC50 is on record?
The XC50 was 1.28 µM.

How did the XC50 turn out when `CCCNCc1ccc(-c2ccc(CN(CCOC)C(=O)/C=C/c3ccccc3C)cc2)nc1` was run?
Its XC50 is 0.903 µM.

How did the XC50 turn out when `N=C1N=C(N)NC2(CCCCC2)N1OCCCOc1cccc2ccccc12` was run?
Its XC50 is 0.0032 µM.

`CCOC(=O)C1=C(C)N=c2sc(=Cc3cc(Cl)ccc3O)c(=O)n2C1c1cc(OC)c(OC)cc1Br` (stereo not drawn) was tested. Which XC50 did it give?
The XC50 was 0.993 µM.

How did the XC50 turn out when `CCc1ccc(-c2nc3cc(NC(=O)c4cc([N+](=O)[O-])cc([N+](=O)[O-])c4)ccc3o2)cc1` was run?
Its XC50 is 0.932 µM.

How did the XC50 turn out when `CN1CCN(CCCNCc2ccc(Nc3nccc(Nc4ccc(Oc5ccccc5)cc4)n3)cc2)CC1` was run?
The XC50 was 0.635 µM.

For `CC(=O)Oc1c(Br)c(C)nc(C)c1-c1ccc(Oc2ccc(OC(F)(F)F)cc2)cc1`, which XC50 is on record?
Its XC50 is 0.131 µM.

Which XC50 does the source give for `O=C(CCCc1ccccc1)Nc1cccc(N2CCC(N3CCN(c4ccccc4O)CC3)CC2)c1` here?
Its XC50 is 0.786 µM.

How did the XC50 turn out when `CC(CN1CCN(C)CC1)C(=O)Nc1ccc(-c2ccc(-c3nc4cc(C(F)(F)F)ccc4[nH]3)cc2)cc1` (stereo not drawn) was run?
The XC50 was 0.415 µM.

Which XC50 does the source give for `CCOc1cc(C)ccc1C1CCN(CCCCNC(=O)c2ccc(NC(=O)c3cc(Cl)cc(Cl)c3)cc2)CC1` here?
Its XC50 is 0.355 µM.

Which XC50 does the source give for `Cc1ccc(C(C)C)cc1CON1C(=N)N=C(N)NC1(C)C` here?
Its XC50 is 0.0032 µM.

`Oc1ccc(CCNc2nc(NCCCOc3ccccc3-c3ccc(C(F)(F)F)cc3)nc(N3CCNCC3)n2)cc1` was tested. Which XC50 did it give?
Its XC50 is 0.891 µM.

For `COc1ccc2nccc([C@@H](O)CN3CCC(NS(=O)(=O)c4cc(Br)c(Br)s4)CC3)c2c1`, which XC50 is on record?
Its XC50 is 0.851 µM.

How did the XC50 turn out when `COc1cc(F)c2nccc([C@@H](O)CN3CCC(NCc4ccc5c(n4)NC(=O)CS5)CC3)c2c1` was run?
Its XC50 is 0.56 µM.

How did the XC50 turn out when `CC1CN(c2cnn(Cc3cccc(NC(=O)Nc4ccc(F)cc4[N+](=O)[O-])c3)c(=O)c2Cl)CC(C)N1` (stereo not drawn) was run?
The XC50 was 0.866 µM.

How did the XC50 turn out when `O=S(=O)(c1ccc(Cl)cc1Cl)N1CCCCC(c2ccc(C(F)(F)F)cc2)=N1` was run?
The XC50 was 0.16 µM.

Which XC50 does the source give for `CCOc1ccc(-c2nonc2NC(=O)c2ccccc2F)cc1OCC` here?
Its XC50 is 0.841 µM.

`CC(=O)c1cccc(NC(=O)NC2CCN(c3ccnc(Nc4ccc(F)cc4)n3)C2)c1` (stereo not drawn) was tested. Which XC50 did it give?
Its XC50 is 0.65 µM.

For `COc1cc(-c2nc3c4ccccc4c4ccccc4c3[nH]2)cc(OC)c1OC`, which XC50 is on record?
Its XC50 is 0.848 µM.

How did the XC50 turn out when `Cc1nc2ccc3ccc(CNc4ccc5c(c4)CN([C@H](CCC(=O)O)C(=O)O)C5=O)cc3c2c(=O)[nH]1` was run?
The XC50 was 0.86 µM.
